Test results published in ChEMBL document CHEMBL1201861, “Genomics of Drug Sensitity in Cancer screening data, Wellcome Trust Sanger Institute”.

Experiments:
Experiment in all cases: cells
Conditions in all cases: Homo sapiens
[1] = system: COLO-829; format: functional, cell-based
Description: SANGER: Inhibition of human COLO-829 cell growth in a cell viability assay.

[2] = system: CTB-1; format: functional, cell-based
Description: SANGER: Inhibition of human CTB-1 cell growth in a cell viability assay.

[3] = system: D-263MG; format: functional, cell-based
Description: SANGER: Inhibition of human D-263MG cell growth in a cell viability assay.

[4] = system: DOHH-2; format: functional, cell-based;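 also: growth inhibition of human DOHH-2 cells, read out with a cell viability assay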
Description: SANGER: Inhibition of human DOHH-2 cell growth in a cell viability assay.

[5] = system: DSH1; format: functional, cell-based;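 also: growth inhibition of human DSH1 cells, measured with a cell viability readout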
Description: SANGER: Inhibition of human DSH1 cell growth in a cell viability assay.

[6] = system: EC-GI-10; format: functional, cell-based
Description: SANGER: Inhibition of human EC-GI-10 cell growth in a cell viability assay.

[7] = system: EM-2; format: functional, cell-based;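 also: growth inhibition of EM-2 cells, read out with a cell viability assay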
Description: SANGER: Inhibition of human EM-2 cell growth in a cell viability assay.

[8] = system: ES7; format: functional, cell-based;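 also: growth inhibition of cultured human ES7 cells, read out as cell viability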
Description: SANGER: Inhibition of human ES7 cell growth in a cell viability assay.

[9] = system: ETK-1; format: functional, cell-based;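 also: growth inhibition of human ETK-1 cells, read out with a cell viability assay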
Description: SANGER: Inhibition of human ETK-1 cell growth in a cell viability assay.

[10] = system: EW-11; format: functional, cell-based;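 also: growth inhibition of human EW-11 cells, measured with a cell viability assay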
Description: SANGER: Inhibition of human EW-11 cell growth in a cell viability assay.

[11] = system: EW-16; format: functional, cell-based;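 also: growth inhibition of human EW-16 cells, read out as cell viability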
Description: SANGER: Inhibition of human EW-16 cell growth in a cell viability assay.

[12] = system: GR-ST; format: functional, cell-based
Description: SANGER: Inhibition of human GR-ST cell growth in a cell viability assay.

[13] = system: GT3TKB; format: functional, cell-based;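 also: growth inhibition of the cell line, read out with a cell viability assay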
Description: SANGER: Inhibition of human GT3TKB cell growth in a cell viability assay.

[14] = system: HC-1; format: functional, cell-based;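 also: growth inhibition of HC-1 cells measured by a cell viability assay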
Description: SANGER: Inhibition of human HC-1 cell growth in a cell viability assay.

[15] = system: HCE-T; format: functional, cell-based;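 also: cell viability assay read-out, reporting inhibition of HCE-T cell growth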
Description: SANGER: Inhibition of human HCE-T cell growth in a cell viability assay.

[16] = system: HD-MY-Z; format: functional, cell-based;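 also: growth inhibition of HD-MY-Z cells, read out with a cell viability assay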
Description: SANGER: Inhibition of human HD-MY-Z cell growth in a cell viability assay.

[17] = system: HL-60; format: functional, cell-based;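 also: growth inhibition of human HL-60 cells, read out with a cell viability assay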
Description: SANGER: Inhibition of human HL-60 cell growth in a cell viability assay.

[18] = system: HT; format: functional, cell-based
Description: SANGER: Inhibition of human HT cell growth in a cell viability assay.

[19] = system: J-RT3-T3-5; format: functional, cell-based;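 also: cell viability assay measuring growth inhibition of human J-RT3-T3-5 cells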
Description: SANGER: Inhibition of human J-RT3-T3-5 cell growth in a cell viability assay.

[20] = system: K562; format: functional, cell-based
Description: SANGER: Inhibition of human K-562 cell growth in a cell viability assay.

[21] = system: KE-37; format: functional, cell-based;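 also: growth inhibition of KE-37 cells, read out with a cell viability assay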
Description: SANGER: Inhibition of human KE-37 cell growth in a cell viability assay.

[22] = system: KS-1; format: functional, cell-based;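 also: growth inhibition of KS-1 cells, read out with a cell viability assay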
Description: SANGER: Inhibition of human KS-1 cell growth in a cell viability assay.

[23] = system: L-363; format: functional, cell-based
Description: SANGER: Inhibition of human L-363 cell growth in a cell viability assay.

[24] = system: L-428; format: functional, cell-based
Description: SANGER: Inhibition of human L-428 cell growth in a cell viability assay.

[25] = system: LAMA-84; format: functional, cell-based;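 also: growth inhibition of LAMA-84 cells, read out with a cell viability assay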
Description: SANGER: Inhibition of human LAMA-84 cell growth in a cell viability assay.

[26] = system: LB373-MEL-D; format: functional, cell-based;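 also: growth inhibition of the cell line, read out in a cell viability assay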
Description: SANGER: Inhibition of human LB373-MEL-D cell growth in a cell viability assay.

[27] = system: LS-1034; format: functional, cell-based
Description: SANGER: Inhibition of human LS-1034 cell growth in a cell viability assay.

[28] = system: LS-411N; format: functional, cell-based
[29] = system: LU-134-A; format: functional, cell-based
Description: SANGER: Inhibition of human LU-134-A cell growth in a cell viability assay.

[30] = system: MC116; format: functional, cell-based;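 also: growth inhibition of MC116 cells, read out with a cell viability assay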
Description: SANGER: Inhibition of human MC116 cell growth in a cell viability assay.

[31] = system: MHH-NB-11; format: functional, cell-based;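 also: growth inhibition of human MHH-NB-11 cells, read out by a cell viability assay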
Description: SANGER: Inhibition of human MHH-NB-11 cell growth in a cell viability assay.

[32] = system: ML-2; format: functional, cell-based;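 also: growth inhibition of ML-2 cells, measured with a cell viability readout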
Description: SANGER: Inhibition of human ML-2 cell growth in a cell viability assay.

[33] = system: MLMA; format: functional, cell-based;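 also: growth inhibition of MLMA cells (human), determined through a cell viability readout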
Description: SANGER: Inhibition of human MLMA cell growth in a cell viability assay.

[34] = system: MOLT-4; format: functional, cell-based;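 also: growth inhibition of MOLT-4 cells, determined with a cell viability readout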
Description: SANGER: Inhibition of human MOLT-4 cell growth in a cell viability assay.

[35] = system: MV4-11; format: functional, cell-based, MV-4-11;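 also: cell viability readout measuring growth inhibition of human MV-4-11 cells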
Description: SANGER: Inhibition of human MV-4-11 cell growth in a cell viability assay.

[36] = system: MZ2-MEL; format: functional, cell-based;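 also: growth inhibition of MZ2-MEL cells read out with a cell viability assay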
Description: SANGER: Inhibition of human MZ2-MEL cell growth in a cell viability assay.

[37] = system: NCI-H1299; format: functional, cell-based;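 also: growth inhibition of human NCI-H1299 cells, read out by a cell viability assay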
Description: SANGER: Inhibition of human NCI-H1299 cell growth in a cell viability assay.

[38] = system: NCI-H1355; format: functional, cell-based;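 also: growth inhibition of human NCI-H1355 cells, read out by a cell viability assay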
Description: SANGER: Inhibition of human NCI-H1355 cell growth in a cell viability assay.

[39] = system: NCI-H2126; format: functional, cell-based;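 also: growth inhibition of the cancer cell line, determined with a cell viability readout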
Description: SANGER: Inhibition of human NCI-H2126 cell growth in a cell viability assay.

[40] = system: NCI-H526; format: functional, cell-based;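 also: growth inhibition of the human NCI-H526 cell line, measured by a cell viability assay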
Description: SANGER: Inhibition of human NCI-H526 cell growth in a cell viability assay.

[41] = system: NCI-H747; format: functional, cell-based;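 also: growth inhibition of human NCI-H747 cells, read out by a cell viability assay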
Description: SANGER: Inhibition of human NCI-H747 cell growth in a cell viability assay.

[42] = system: NCI-H82; format: functional, cell-based;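 also: growth inhibition of NCI-H82 cells, measured with a cell viability readout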
Description: SANGER: Inhibition of human NCI-H82 cell growth in a cell viability assay.

[43] = system: NKM-1; format: functional, cell-based;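 also: growth inhibition of NKM-1 cells, read out with a cell viability assay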
Description: SANGER: Inhibition of human NKM-1 cell growth in a cell viability assay.

[44] = system: NMC-G1; format: functional, cell-based;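 also: growth inhibition of the NMC-G1 cell line, measured with a cell viability read-out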
Description: SANGER: Inhibition of human NMC-G1 cell growth in a cell viability assay.

[45] = system: NOMO-1; format: functional, cell-based;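 also: growth inhibition of human NOMO-1 cells measured by a cell viability assay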
Description: SANGER: Inhibition of human NOMO-1 cell growth in a cell viability assay.

[46] = system: ONS-76; format: functional, cell-based;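 also: growth inhibition of human ONS-76 cells, read out with a cell viability assay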
Description: SANGER: Inhibition of human ONS-76 cell growth in a cell viability assay.

[47] = system: OVCAR-4; format: functional, cell-based;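 also: growth inhibition of human OVCAR-4 cells, measured with a cell viability assay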
Description: SANGER: Inhibition of human OVCAR-4 cell growth in a cell viability assay.

[48] = system: PSN1; format: functional, cell-based;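 also: suppression of growth of human PSN1 cells, read out by a cell viability assay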
Description: SANGER: Inhibition of human PSN1 cell growth in a cell viability assay.

[49] = system: RS4-11; format: functional, cell-based;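 also: growth inhibition of RS4-11 cells, read out by a cell viability assay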
Description: SANGER: Inhibition of human RS4-11 cell growth in a cell viability assay.

[50] = system: SF-126; format: functional, cell-based;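 also: growth inhibition of human SF126 cells, read out with a cell viability assay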
Description: SANGER: Inhibition of human SF126 cell growth in a cell viability assay.

[51] = system: SF-268; format: functional, cell-based;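 also: growth inhibition of SF-268 cells determined with a cell viability assay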
Description: SANGER: Inhibition of human SF268 cell growth in a cell viability assay.

[52] = system: SH-4; format: functional, cell-based;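 also: growth inhibition of SH-4 cells, read out with a cell viability assay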
Description: SANGER: Inhibition of human SH-4 cell growth in a cell viability assay.

[53] = system: SW 962; format: functional, cell-based;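 also: growth inhibition of human SW962 cells, read out by a cell viability assay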
Description: SANGER: Inhibition of human SW962 cell growth in a cell viability assay.

[54] = system: BB49-HNC; format: functional, cell-based;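 also: cell viability assay read-out, reported as inhibition of BB49-HNC cell growth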
Description: SANGER: Inhibition of human BB49-HNC cell growth in a cell viability assay.

[55] = system: BT-474; format: functional, cell-based
Description: SANGER: Inhibition of human BT-474 cell growth in a cell viability assay.

[56] = system: C2BBe1; format: functional, cell-based;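 also: growth inhibition of C2BBe1 cells, read out through a viability assay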
Description: SANGER: Inhibition of human C2BBe1 cell growth in a cell viability assay.

[57] = system: TE-5; format: functional, cell-based;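 also: inhibition of cell growth, read out by a cell viability assay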
Description: SANGER: Inhibition of human TE-5 cell growth in a cell viability assay.

[58] = system: VA-ES-BJ; format: functional, cell-based;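 also: growth inhibition of the VA-ES-BJ cell line, read out by a cell viability assay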
Description: SANGER: Inhibition of human VA-ES-BJ cell growth in a cell viability assay.

[59] = system: no-10; format: functional, cell-based;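 also: growth inhibition of no-10 cells, read out with a cell viability assay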
Description: SANGER: Inhibition of human no-10 cell growth in a cell viability assay.

[60] = system: COLO-320-HSR; format: functional, cell-based;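 also: growth inhibition of COLO-320-HSR cells, determined with a cell viability assay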
Description: SANGER: Inhibition of human COLO-320-HSR cell growth in a cell viability assay.

[61] = system: DU-4475; format: functional, cell-based
Description: SANGER: Inhibition of human DU-4475 cell growth in a cell viability assay.

[62] = system: IST-MES1; format: functional, cell-based;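 also: growth inhibition of IST-MES1 cells, measured with a cell viability assay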
Description: SANGER: Inhibition of human IST-MES1 cell growth in a cell viability assay.

[63] = system: LXF-289 cell line; format: functional, cell-based
Description: SANGER: Inhibition of human LXF-289 cell growth in a cell viability assay.

[64] = system: MFH-ino; format: functional, cell-based;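 also: growth inhibition of human MFH-ino cells, read out by a cell viability assay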
Description: SANGER: Inhibition of human MFH-ino cell growth in a cell viability assay.

[65] = system: NCI-H720; format: functional, cell-based
Description: SANGER: Inhibition of human NCI-H720 cell growth in a cell viability assay.

With `NC(=O)c1ncn([C@@H]2O[C@H](COP(=O)(O)O)[C@@H](O)[C@H]2O)c1N` the IC50 [1] was > 2000 µM, the IC50 [2] was 646 µM and the IC50 [3] was > 2000 µM. For the same molecule, the IC50 [4] was 1310 µM, the IC50 [5] was > 2000 µM and the IC50 [6] was > 2000 µM. For the same molecule, the IC50 [7] was 230 µM, the IC50 [8] was > 2000 µM and the IC50 [9] was 541 µM. The IC50 [10] was 1090 µM, the IC50 [11] was > 2000 µM and the IC50 [12] was 431 µM. The IC50 [13] was > 2000 µM, the IC50 [14] was 1160 µM and the IC50 [15] was 715 µM. The IC50 [16] was 1950 µM, the IC50 [17] was 376 µM and the IC50 [18] was 995 µM. The IC50 [19] was > 2000 µM, the IC50 [20] was > 2000 µM and the IC50 [21] was 534 µM. For the same molecule, the IC50 [22] was 1250 µM, the IC50 [23] was 179 µM and the IC50 [24] was > 2000 µM. For the same molecule, the IC50 [25] was 435 µM, the IC50 [26] was > 2000 µM and the IC50 [27] was > 2000 µM. The IC50 [28] was > 2000 µM, the IC50 [29] was 959 µM and the IC50 [30] was 1290 µM. The IC50 [31] was 1110 µM, the IC50 [32] was > 2000 µM and the IC50 [33] was 375 µM. For the same molecule, the IC50 [34] was 485 µM, the IC50 [35] was 108 µM and the IC50 [36] was > 2000 µM. For the same molecule, the IC50 [37] was > 2000 µM, the IC50 [38] was > 2000 µM and the IC50 [39] was > 2000 µM. For the same molecule, the IC50 [40] was 115 µM, the IC50 [41] was 1650 µM and the IC50 [42] was 993 µM. For the same molecule, the IC50 [43] was 180 µM, the IC50 [44] was > 2000 µM and the IC50 [45] was 847 µM. The IC50 [46] was > 2000 µM, the IC50 [47] was 751 µM and the IC50 [48] was 1950 µM. The IC50 [49] was 351 µM, the IC50 [50] was > 2000 µM and the IC50 [51] was > 2000 µM. The IC50 [52] was > 2000 µM, the IC50 [53] was > 2000 µM and the IC50 [54] was > 2000 µM. For the same molecule, the IC50 [55] was > 2000 µM, the IC50 [56] was 597 µM and the IC50 [57] was > 2000 µM. For the same molecule, the IC50 [58] was 819 µM, the IC50 [59] was > 2000 µM and the IC50 [60] was 772 µM.

`CC[C@@]1(O)C(=O)OCc2c1cc1n(c2=O)Cc2cc3ccccc3nc2-1` [CAMPTOTHECIN] was tested, and the IC50 [1] was 0.0117 µM, the IC50 [2] was 0.000429 µM and the IC50 [3] was 0.00911 µM. It also gave an IC50 [4] of 0.000602 µM, an IC50 [5] of 0.0158 µM and an IC50 [61] of 0.00307 µM. It also gave an IC50 [6] of 0.0079 µM, an IC50 [7] of 0.00408 µM and an IC50 [8] of 2.54e-05 µM. For the same molecule, the IC50 [9] was 0.0349 µM, the IC50 [10] was 0.00266 µM and the IC50 [11] was 0.000121 µM. For the same molecule, the IC50 [12] was 0.000701 µM, the IC50 [13] was 0.00176 µM and the IC50 [14] was 0.00334 µM. For the same molecule, the IC50 [15] was 0.00547 µM, the IC50 [16] was 0.00163 µM and the IC50 [17] was 0.00373 µM. It also gave an IC50 [18] of 0.0297 µM, an IC50 [62] of 0.0106 µM and an IC50 [19] of 0.00258 µM. The IC50 [20] was > 0.1 µM, the IC50 [21] was 0.00154 µM and the IC50 [22] was 0.0579 µM. For the same molecule, the IC50 [23] was 0.00187 µM, the IC50 [25] was 0.00702 µM and the IC50 [26] was 0.0912 µM. The IC50 [27] was > 0.1 µM, the IC50 [28] was 0.0581 µM and the IC50 [29] was 0.000586 µM. The IC50 [63] was 0.00705 µM, the IC50 [30] was 0.0159 µM and the IC50 [64] was 0.0271 µM. It also gave an IC50 [31] of 0.000842 µM, an IC50 [32] of 0.00216 µM and an IC50 [33] of 0.00814 µM. The IC50 [34] was 0.00162 µM, the IC50 [35] was 0.000706 µM and the IC50 [36] was 0.0141 µM. For the same molecule, the IC50 [37] was 0.00943 µM, the IC50 [38] was 0.0661 µM and the IC50 [40] was 0.00103 µM. The IC50 [65] was 0.0447 µM, the IC50 [42] was > 0.1 µM and the IC50 [43] was 0.000441 µM. It also gave an IC50 [44] of 0.0198 µM, an IC50 [45] of 0.00156 µM and an IC50 [46] of 0.00241 µM. It also gave an IC50 [48] of 0.00307 µM, an IC50 [49] of 0.000902 µM and an IC50 [50] of 0.00284 µM. It also gave an IC50 [51] of 0.00338 µM, an IC50 [52] of 0.0598 µM and an IC50 [53] of 0.0205 µM. For the same molecule, the IC50 [55] was > 0.1 µM, the IC50 [56] was 0.00244 µM and the IC50 [57] was 0.00738 µM. It also gave an IC50 [58] of 0.00347 µM and an IC50 [60] of 0.0621 µM.
